Results reported in US8338414B2, “Immunosuppressive agent and anti-tumor agent comprising heterocyclic compound as active ingredient” (Zenyaku Kogyo KabushikiKaisha, priority 2005, dated 2012).
Like-named read-outs stand apart in the source and are kept apart here.

Columns and labels:
[1] = tested on: mouse spleen cells; test: Proliferation inhibition assay for mouse spleen cells; format: cell-based; conditions: 72 h, 3 days, Alamar Blue
Experimental: Spleen cells (2×10^6 cells/mL) prepared from C57BL/6N female mice (8 weeks old, purchased from Charles River Laboratories Japan Inc.) were suspended in RPMI 1640 medium (containing 10% fetal bovine serum, 10 mM HEPES, 1 mM pyruvic acid, 4.5 g/L glucose, 100 units/mL penicillin, and 0.1 mg/mL streptomycin), and seeded in wells of a 96 well plate at 0.225 mL per well. Serial dilutions of test substances were added to respective wells, and then concanavalin A (Con A, 3 μg/mL), lipopolysaccharide (LPS, 100 μg/mL), or an anti-mouse IgM antibody (100 μg/mL) were added. Thereafter, they were incubated under conditions of carbon dioxide 5% at a temperature 37° C. for 3 days. Next, Alamar Blue solution was added at 50 μL per 150 μL, and after having cultured for one day, the fluorescence intensity at 590 nm using an excitation wavelength of 530 nm was determined by Cytoflour 4000 (Applied Biosystems).

[2] = LPS 100 μg/mL, read-out: Inhibition of LPS response
[3] = anti-mouse IgM antibody 100 μg/mL, read-out: Inhibition of Anti-IgM antibody response
[4] = concanavalin A 3 μg/mL, read-out: Inhibition of Con A response

SMILES	IC50 [1, 2]	IC50 [1, 3]	IC50 [1, 4]	melting point
C[C@@H]1OCCN(c2nc(N3CCOCC3)nc(-n3cnc4ccccc43)n2)[C@H]1C (relative stereo) [Compound 2, 2-(Benzimidazol-1-yl)-4-(trans-2,3-dimethylmorpholino)-6-morpholino-1,3,5-triazine]	0.1 to 10 µM	0.1 to 10 µM	0.1 to 10 µM	147 to 150 °C
C[C@@H]1OCCN(c2nc(N3CCOCC3)nc(-n3c(C(F)F)nc4ccc(N)cc43)n2)[C@@H]1C (relative stereo) [Compound 8, 2-(6-Amino-2-difluoromethylbenzimidazol-1-yl)-4-(cis-2,3-dimethylmorpholino)-6-morpholino-1,3,5-triazine]	0.1 to 10 µM	0.001 to 0.1 µM	0.001 to 0.1 µM	220 to 222 °C (dec.)
Nc1nc2ccccc2n1-c1nc(N2CCOCC2)cc(N2CCOCC2)n1 [Compound 5, 2-(2-Aminobenzimidazol-1-yl)-4,6-dimorpholinopyrimidine]	0.1 to 10 µM	0.1 to 10 µM	0.1 to 10 µM	237 to 239 °C
FC(F)c1nc2ccccc2n1-c1nc(N2CCCCC2)nc(N2CCOCC2)n1 [Compound 7, 2-(2-Difluoromethylbenzimidazol-1-yl)-4-piperidino-6-morpholino-1,3,5-triazine]	0.1 to 10 µM	0.1 to 10 µM	0.1 to 10 µM	190 to 192 °C
CCOc1ccc2nc(C(F)F)n(-c3nc(N4CCOCC4)nc(N4CCOCC4)n3)c2c1 [Compound 9, 2-(2-Difluoromethyl-6-ethoxybenzimidazol-1-yl)-4,6-dimorpholino-1,3,5-triazine]	0.001 to 0.1 µM	0.001 to 0.1 µM	0.001 to 0.1 µM	222 to 224 °C
Cc1cc2nc(C(F)F)n(-c3nc(N4CCOCC4)nc(N4CCOCC4)n3)c2cc1C [Production Example 29, 2-(5,6-Dimethyl-2-difluoromethylbenzimidazol-1-yl)-4,6-dimorpholino-1,3,5-triazine]	–	–	–	217 to 220 °C
Nc1cc(Cl)c2nc(C(F)F)n(-c3nc(N4CCOCC4)nc(N4CCCC4CO)n3)c2c1 (stereo not drawn) [Production Example 30, 2-(6-Amino-4-chloro-2-difluoromethylbenzimidazol-1-yl)-4-(2-hydroxymethylpyrrolidin-1-yl)-6-morpholino-1,3,5-triazine]	–	–	–	256 °C (dec.)
Oc1ccc2c(nc(C(F)F)n2-c2nc(N3CCOCC3)nc(N3CCOCC3)n2)c1Cl [Production Example 31, 2-(4-Chloro-2-difluoromethyl-5-hydroxybenzimidazol-1-yl)-4,6-dimorpholino-1,3,5-triazine]	–	–	–	> 250 °C
O=CN1CCN(c2nc(N3CCOCC3)nc(-n3c(C(F)F)nc4ccccc43)n2)CC1 [Production Example 33, 2-(2-Difluoromethylbenzimidazol-1-yl)-6-(4-formylpiperazin-1-yl)-4-morpholino-1,3,5-triazine]	–	–	–	228 to 230 °C
O=C1CN(c2nc(N3CCOCC3)nc(-n3c(C(F)F)nc4ccccc43)n2)CCN1 [Production Example 34, 2-(2-Difluoromethylbenzimidazol-1-yl)-4-morpholino-6-(3-oxopiperazin-1-yl)-1,3,5-triazine]	–	–	–	255 to 257 °C
O=C1CN(c2nc(N3CCOCC3)nc(-n3c(C(F)F)nc4ccccc43)n2)CC(=O)N1 [Production Example 35, 2-(2-Difluoromethylbenzimidazol-1-yl)-6-(3,5-dioxopiperazin-1-yl)-4-morpholino-1,3,5-triazine]	–	–	–	230 to 232 °C
COC(=O)N1CCN(c2nc(N3CCOCC3)nc(-n3c(C(F)F)nc4ccccc43)n2)CC1 [Production Example 43, 2-(2-Difluoromethylbenzimidazol-1-yl)-4-(4-methoxycarbonylpiperazin-1-yl)-6-morpholino-1,3,5-triazine]	–	–	–	255 to 260 °C
